Values of other authors as cited in patent US7863273B2, “Process for the preparation of an optically active 5H-pyrrolo [3,4-B] pyrazine derivative” (Glenmark Generics Ltd., priority 2006, dated 2011).

Columns and labels:
[1] = system: pentetrazol-induced convulsions; settings: relative to zopiclone (racemate)
[2] = not given; remark: listed apart in the source
writhing reflex = settings: relative to zopiclone (racemate)
[3] = system: central benzodiazepine receptor sites; settings: relative to zopiclone (racemate)

CN1CCN(C(=O)O[C@@H]2c3nccnc3C(=O)N2c2ccc(Cl)cn2)CC1 (single isomer, unassigned) [laevorotatory isomer]
toxicity as compared to the racemate: more toxic than the racemate | potency of action: antagonist activity with respect to pentetrazol-induced convulsions [1]: almost inactive | activity as compared to the racemate [2]: almost inactive | potency of action: writhing reflex test in mice (writhing reflex): almost inactive | potency of action: affinity for central benzodiazepine receptor sites [3]: almost inactive

CN1CCN(C(=O)O[C@H]2c3nccnc3C(=O)N2c2ccc(Cl)cn2)CC1 [dextrorotatory isomer, (+)-(5S)-6-(chloropyridin-2-yl)-7-oxo-6,7-dihydro-5H-pyrrol[3,4-b]pyrazin-5-yl 4-methylpiperazine-1-carboxylate]
toxicity as compared to the racemate: lower toxicity | potency of action: antagonist activity with respect to pentetrazol-induced convulsions [1]: approximately twice as active | activity as compared to the racemate [2]: approximately twice as active | potency of action: writhing reflex test in mice (writhing reflex): approximately twice as active | potency of action: affinity for central benzodiazepine receptor sites [3]: approximately twice as active
